ChEMBL document CHEMBL4699477, “Tricyclic sulfones as potent, selective and efficacious RORγt inverse agonists - Exploring C6 and C8 SAR using late-stage functionalization” (Bioorg Med Chem Lett, 2020)
Calls of active or inactive are those of the source. No cut-off for these calls is given here.

Columns and labels:
[1] = Metabolic stability in rat liver microsomes assessed as half life; type: ADME, Microsome
[2] = Metabolic stability in mouse liver microsomes assessed as half life; type: ADME, Microsome
[3] = Metabolic stability in human liver microsomes assessed as half life; type: ADME, Microsome
[4] = Drug concentration in Balb/c mouse at 10 mg/kg, po measured after 24 hrs; type: ADME, organism-based; conditions: in vivo, read-out: Drug uptake
[5] = Cmax in Balb/c mouse at 10 mg/kg, po; type: ADME, organism-based; parameters: route oral, dose 10 mg/kg; conditions: in vivo
[6] = GSH reactivity in human liver cytosol assessed as GSH adduct formation; type: ADME, subcellular, Cytoplasm
[7] = system: Mus musculus; test: Protection against recombinant human IL23-induced acanthosis C57BL/6 mouse model assessed as reduction in ear swelling at 50 mg/kg, po administered bid for 9 days; type: functional, organism-based; conditions: time 9.0 day
[8] = target: T1, Nuclear receptor ROR-gamma (Homo sapiens, UniProt P51449); test: Inverse agonist activity at RORgammat in CD3 and CD28-stimulated human whole blood assessed as reduction in IL17A production incubated for 1 hr before CD3 and CD28 stimulation for 20 hrs by AlphaLISA method; type: tissue-based
T1 sequence (P51449 whole entry): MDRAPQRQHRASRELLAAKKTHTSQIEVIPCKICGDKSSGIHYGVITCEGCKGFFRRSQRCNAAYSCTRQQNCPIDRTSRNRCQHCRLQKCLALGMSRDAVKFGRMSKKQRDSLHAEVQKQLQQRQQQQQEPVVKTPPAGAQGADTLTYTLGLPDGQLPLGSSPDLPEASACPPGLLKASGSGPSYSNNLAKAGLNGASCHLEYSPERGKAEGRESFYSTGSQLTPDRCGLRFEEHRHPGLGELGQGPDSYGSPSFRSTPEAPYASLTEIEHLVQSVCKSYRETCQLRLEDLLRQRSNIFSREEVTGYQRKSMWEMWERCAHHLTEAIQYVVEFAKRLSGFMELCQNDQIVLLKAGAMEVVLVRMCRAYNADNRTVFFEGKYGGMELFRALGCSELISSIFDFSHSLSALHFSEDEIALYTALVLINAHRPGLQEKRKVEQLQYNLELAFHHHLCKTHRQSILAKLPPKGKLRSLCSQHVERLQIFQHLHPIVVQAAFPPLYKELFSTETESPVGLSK

[9] = target: T1, Nuclear receptor ROR-gamma; test: Inverse agonist activity at Gal4-fused RORgammat (unknown origin)

Structure (SMILES)	half-life [1] [min]	half-life [2] [min]	half-life [3] [min]	further results
Cc1cc2c(cc1C(F)(C(F)(F)F)C(F)(F)F)CC[C@H]1N(C(=O)[C@H]3CC[C@H](C(=O)O)CC3)CC[C@@]21S(=O)(=O)c1ccc(F)cc1	> 120	> 120	> 120	
O=C(O)[C@H]1CC[C@H](C(=O)N2CC[C@@]3(S(=O)(=O)c4ccc(F)cc4)c4ccc(C(F)(C(F)(F)F)C(F)(F)F)cc4CC[C@@H]23)CC1				concentration at 24 h [4]: 400 nM; Cmax [5]: 1.4 µM
C[C@H]1C[C@H](C(=O)O)CC[C@H]1C(=O)N1CC[C@@]2(S(=O)(=O)c3ccc(F)cc3)c3ccc(C(F)(C(F)(F)F)C(F)(F)F)cc3CC[C@@H]12 [BMS-986251]	> 120	> 120	> 120	Activity [6]: 6%
O=C(O)[C@H]1CC[C@H](C(=O)N2CC[C@](c3ccc(C(F)(C(F)(F)F)C(F)(F)F)cc3)(S(=O)(=O)c3ccc(F)cc3)C2)CC1				inhibition [7]: Active
N#Cc1cc2c(cc1C(F)(C(F)(F)F)C(F)(F)F)CC[C@H]1N(C(=O)[C@H]3CC[C@H](C(=O)O)CC3)CC[C@@]21S(=O)(=O)c1ccc(F)cc1	87	> 120	> 120	concentration at 24 h [4]: 1600 nM; EC50 [8]: 13 nM; EC50 [9]: 17 nM; Cmax [5]: 8.6 µM
O=C(O)[C@H]1CC[C@H](C(=O)N2CC[C@@]3(S(=O)(=O)c4ccc(F)cc4)c4cc(Cl)c(C(F)(C(F)(F)F)C(F)(F)F)cc4CC[C@@H]23)CC1	83	> 120	> 120	
C[C@H]1C[C@H](C(=O)O)CC[C@H]1C(=O)N1CC[C@@]2(S(=O)(=O)c3ccccc3)c3ccc(C(F)(C(F)(F)F)C(F)(F)F)cc3CC[C@@H]12				EC50 [8]: 52 nM
